Consider one compound from ChEMBL document CHEMBL1157703, “Synthesis, pharmacological studies and molecular modeling of some tetracyclic 1,3-diazepinium chlorides” (Bioorg Med Chem, 2010).

The target of data set [1] is T1, GABA-A receptor; alpha-1/beta-2/gamma-2 (Homo sapiens, UniProt P14867+P18507+P47870).
T1 sequence (P14867 whole entry): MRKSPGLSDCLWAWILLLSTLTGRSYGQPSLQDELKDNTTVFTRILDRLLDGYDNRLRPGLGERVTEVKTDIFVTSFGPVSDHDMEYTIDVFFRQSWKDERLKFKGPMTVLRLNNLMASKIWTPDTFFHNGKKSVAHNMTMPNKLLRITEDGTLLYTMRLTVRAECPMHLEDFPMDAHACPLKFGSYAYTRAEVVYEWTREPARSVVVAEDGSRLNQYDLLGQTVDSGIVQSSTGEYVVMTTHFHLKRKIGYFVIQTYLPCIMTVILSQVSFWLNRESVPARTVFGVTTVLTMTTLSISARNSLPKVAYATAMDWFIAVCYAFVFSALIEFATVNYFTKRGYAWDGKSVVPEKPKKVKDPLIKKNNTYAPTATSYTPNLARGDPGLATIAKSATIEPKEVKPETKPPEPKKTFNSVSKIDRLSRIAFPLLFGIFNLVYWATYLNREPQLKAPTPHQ
T1 sequence (P47870 whole entry): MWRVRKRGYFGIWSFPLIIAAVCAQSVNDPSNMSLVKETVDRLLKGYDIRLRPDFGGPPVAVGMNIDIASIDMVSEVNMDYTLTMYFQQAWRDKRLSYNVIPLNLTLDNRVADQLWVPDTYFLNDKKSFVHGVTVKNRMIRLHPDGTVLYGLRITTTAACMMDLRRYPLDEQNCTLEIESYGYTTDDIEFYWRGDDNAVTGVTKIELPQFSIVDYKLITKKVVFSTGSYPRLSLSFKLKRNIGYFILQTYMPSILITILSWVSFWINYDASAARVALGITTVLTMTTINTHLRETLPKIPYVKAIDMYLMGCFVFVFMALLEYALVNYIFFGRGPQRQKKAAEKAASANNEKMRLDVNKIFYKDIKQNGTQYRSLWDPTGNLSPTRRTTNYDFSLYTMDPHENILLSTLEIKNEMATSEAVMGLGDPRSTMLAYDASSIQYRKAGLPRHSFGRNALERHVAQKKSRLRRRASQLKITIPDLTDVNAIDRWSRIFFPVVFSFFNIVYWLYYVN
T1 sequence (P18507 whole entry): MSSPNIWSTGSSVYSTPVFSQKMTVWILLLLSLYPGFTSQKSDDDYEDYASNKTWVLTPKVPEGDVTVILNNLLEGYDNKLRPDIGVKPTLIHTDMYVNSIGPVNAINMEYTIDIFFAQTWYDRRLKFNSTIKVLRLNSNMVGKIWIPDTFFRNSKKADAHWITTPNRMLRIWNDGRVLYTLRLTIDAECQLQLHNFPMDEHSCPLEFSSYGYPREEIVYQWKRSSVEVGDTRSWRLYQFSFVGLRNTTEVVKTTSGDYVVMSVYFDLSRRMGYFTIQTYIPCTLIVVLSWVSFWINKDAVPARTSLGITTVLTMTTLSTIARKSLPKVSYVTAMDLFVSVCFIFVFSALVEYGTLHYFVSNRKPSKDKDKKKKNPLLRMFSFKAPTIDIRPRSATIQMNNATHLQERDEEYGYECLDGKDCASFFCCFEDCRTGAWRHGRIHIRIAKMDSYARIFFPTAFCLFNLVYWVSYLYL
The data set can be described thus: Displacement of [3H]flunitrezepam from GABA-A alpha-1-beta-2-gamma-2 receptor by liquid scintillation counting. The class given is protein-complex assay. Background: Displacement assays read how much labelled ligand stays bound in the presence of the test substance.

Data set [2] addresses T2, Gamma-aminobutyric acid receptor subunit alpha-5 (Homo sapiens, UniProt P18507+P31644+P47870).
T2 sequence (P31644 whole entry): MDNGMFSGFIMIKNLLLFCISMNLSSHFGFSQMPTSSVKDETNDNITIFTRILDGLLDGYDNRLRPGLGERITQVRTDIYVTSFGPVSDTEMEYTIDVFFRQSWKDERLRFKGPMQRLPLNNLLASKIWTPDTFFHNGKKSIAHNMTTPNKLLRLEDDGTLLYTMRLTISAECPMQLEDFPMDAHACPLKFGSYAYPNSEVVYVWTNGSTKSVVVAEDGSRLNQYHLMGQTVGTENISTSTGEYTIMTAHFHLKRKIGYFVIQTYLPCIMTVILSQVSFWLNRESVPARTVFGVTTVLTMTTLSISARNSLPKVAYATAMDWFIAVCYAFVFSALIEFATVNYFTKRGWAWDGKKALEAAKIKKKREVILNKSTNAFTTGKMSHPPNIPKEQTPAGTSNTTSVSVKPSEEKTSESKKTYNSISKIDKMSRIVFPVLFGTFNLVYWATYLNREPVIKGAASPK
In words: Displacement of [3H]flunitrezepam from GABAA alpha-5-beta-2-gamma-2 receptor by liquid scintillation counting.

The species entered for data set [3] is Mus musculus. The data set can be described thus: Effect on behavioral activity in Albino mouse assessed as inhibition of diazepam-induced loss of analgesia at 0.2 ml/10 g by hippocratic screen. The class given is functional, organism-based.
The species named for data set [4] is Mus musculus. In words: CNS toxicity in Albino mouse assessed as paralysis at 0.2 ml/10 g by hippocratic screen. The note with it: in vivo. The class given is organism-based.
For data set [5], the species on record is Mus musculus. In words: Effect on behavioral activity in Albino mouse assessed as inhibition of diazepam-induced decrease in motor activity at 0.2 ml/10 g for 10 to 15 mins by hippocratic screen. The class given is functional, organism-based.
Data set [6] is filed under the species Mus musculus. In words: CNS toxicity in Albino mouse assessed as loss of analgesic activity at 0.2 ml/10 g by hippocratic screen. The class given is organism-based. The note with it: in vivo.
The species entered for data set [7] is Mus musculus. In words: Effect on behavioral activity in Albino mouse assessed as inhibition of diazepam-induced ataxia at 0.2 ml/10 g after 5 mins by hippocratic screen. The class given is functional, organism-based.
The species entered for data set [8] is Mus musculus. In words: CNS toxicity in Albino mouse assessed as ataxia at 0.2 ml/10 g by hippocratic screen. In kind it is organism-based. To be noted: in vivo.
The species entered for data set [9] is Mus musculus. In words: CNS toxicity in Albino mouse assessed as startle reaction at 0.2 ml/10 g by hippocratic screen. In kind it is organism-based. The note with it: in vivo.
For data set [10], the species on record is Mus musculus. In words: CNS toxicity in Albino mouse assessed as change in respiratory rate at 0.2 ml/10 g by hippocratic screen. In kind it is organism-based. To be noted: in vivo.

Active and inactive are the calls of the source. The rule behind the calls is not given here.

As to `COc1ccc2c3c(oc2c1)C(=O)Nc1cccc[n+]1C3.[Cl-]`, the figures for the Ki in data set [1] and in data set [2] were 0.746 µM and 2.36 µM, respectively. The outcome in the data set filed under Mus musculus [3] and in the data set listed under Mus musculus [7] was inactive. In addition, the Activity result in the data set filed under Mus musculus [4], in the data set listed under Mus musculus [6], in the data set filed under Mus musculus [8], in the data set listed under Mus musculus [9] and in the data set listed under Mus musculus [10] was “Non-toxic” in each case. For the same compound, in the data set listed under Mus musculus [5], the result was Active.
